Converted amounts (≈) assume the structure as drawn. Counter-ions that a name gives are not always drawn. Like-named read-outs stand apart in the source and are kept apart here.
What was measured:
physchem = settings: hcl, pH 1.1, solubility

Row | solubility (hcl, pH 1.1) | solubility (phosphate buffer, pH 5.4) | solubility (water) | solubility (physchem) | SMILES
1 | 50 µg/mL (≈ 74.5 µM) | < 10 µg/mL | 30 µg/mL (≈ 44.7 µM) | – | CC(C)(C)NC(=O)[C@@H]1C[C@@H]2CCCC[C@@H]2CN1C[C@@H](O)[C@H](Cc1ccccc1)NC(=O)[C@H](CC(N)=O)NC(=O)c1ccc2ccccc2n1 [Compound A, N-tert.-butyl-decahydro-2-[2(R)-hydroxy-4-phenyl-3(S)-[[N-(2-quinolylcarbonyl)-L-asparaginyl]amino]butyl]-(4aS,8aS)-isoquinoline-3(S)-carboxamide]
2 | – | 2320 µg/mL | 2550 µg/mL | 60 µg/mL | CC(C)(C)NC(=O)[C@@H]1C[C@@H]2CCCC[C@@H]2CN1C[C@@H](O)[C@H](Cc1ccccc1)NC(=O)[C@H](CC(N)=O)NC(=O)c1ccc2ccccc2n1 [Compound A-mesylate salt]
